The NIST ThermoML archive (doi:10.1021/je3005408)
± gives the expanded uncertainty stated by the source.

Settings: Liquid, Ebulliometric method (Recirculating still)

vapor or sublimation pressure (317.95 K)	vapor or sublimation pressure (336.85 K)	vapor or sublimation pressure (349.15 K)	SMILES	vapor or sublimation pressure (361.65 K)	vapor or sublimation pressure (381.35 K)	vapor or sublimation pressure (394.25 K)
–	–	–	CCCCOC(C)=O [butyl ethanoate]	29.77 ± 0.34 kPa	58.85 ± 0.79 kPa	87.65 ± 1.3 kPa
29.77 ± 0.34 kPa	58.85 ± 0.77 kPa	87.65 ± 1.2 kPa	C1CCCCC1 [cyclohexane]	–	–	–
